Where two headings read alike, the source gives them in different places.
Columns and labels:
[1] = tested on: blast cells, LSCs and HSPCs of leukemic Pten:β-cat^Act mice; type: in vivo
Procedure: Leukemic mice were treated with vehicle, chemotherapy, [Low]DXR (5×0.5 mg/kg), clinical DXR (1×20 mg/kg), or chemotherapy+[Low]DXR as described in FIG. S2.
Average frequency of each population (n≥6 per group) is shown.
Absolute number/femur±SD of each population (n≥6 per group) is shown.
At 10 days post-treatment, BM was analyzed by flow cytometry to determine frequency of blast cells. Average frequency±SD (n 6 per group). Note that this experiment used clinical dose (normal) or [Low]
Alternatively, a single injection on day 1 of 0.8 or 2.5 μg/g of DXR-loaded nanoparticles (NanoDXR) was given with and without chemotherapy. At 10 days post-treatment, BM was analyzed by flow cytometry to determine frequency of LSCs. Shown is average frequency±SD (n 6 per group).
Alternatively, a single injection on day 1 of 0.8 or 2.5 μg/g of DXR-loaded nanoparticles (NanoDXR) was given with and without chemotherapy. At 10 days post-treatment, BM was analyzed by flow cytometry to determine frequency of HSPCs. Shown is average frequency±SD (n 6 per group).
Whole bone marrow was isolated from uninduced HSC-SCL-Cre^+ Pten^fx/fx βcat^fx(Exon3)/+ (Pn:β-cat^Act) mice and combined with an equal portion of Cre negative bone marrow from a littermate and transplanted into irradiated (10 Grays) B6.SJL-Ptprc^a Pepc^b/BoyJ (Ptprc) recipients.
Chemotherapy for the animal model consisted of Nelarabine (Selleck) and Dexamethasone (BioVision) administered daily for 5 days consecutively. 43.4 mg/ml Nelarabine was administered intravenously via the tail vain according to the formula: Body Weight (g)×5=volume to inject (μl), which yielded 217 mg/kg. 2.5 mg/ml Dexamethasone was injected intraperitoneally according to the formula: Body Weight (g)×4=volume to inject (μl), yielding 10 mg/kg. […] [Low] NanoDXR treatment used doxorubicin nanoparticles (Tran et al. 2014) administered as a single IV injection once per week on day 1 relative to above treatments using 0.8 mg/kg. Maintenance [Low] NanoDXR consisted of once per week injections of 0.4 mg/kg. Groups combining Nelarabine with Doxorubicin used a single injection containing both drugs. All drugs were solubilized in 45% (2-Hydroxypropyl)-p-cyclodextrin (HBC) or 0.9% NaCl.
Cells were collected from bone marrow (femur and tibia), spleen, peripheral blood, and thymus. For cell surface phenotyping, a lineage cocktail (Lin) was used including CD3 (for HSPC but not LSC analysis), CD4, CD8, Mac-1, Gr, B220, IgM, and Ter119 (eBioscience, San Diego, CA). Monoclonal antibodies against CD3 (separate fluorophore for LSC analysis), Sca-1, c-Kit, CD45.1, and CD45.2 were also used where indicated. Cell sorting and analysis were performed using an inFlux (BD), MoFlo (Dako, Ft. Collins, CO) and/or CyAn ADP (Dako, Ft. Collins, CO). Data analysis was performed using FlowJo software (Ashland, OR).

[2] = tested on: LSCs and blast cells of leukemia mice; experiment: Immune-checkpoint blocker treatment / CD8+ T cell depletion in leukemia mice; type: in vivo, mouse; settings: [Low]DXR after anti-CD8 depletion
Procedure: For immune-checkpoint blocker treatment, 250 μg anti-PD-1 or isotype control (BioXcell) was injected intravenously every other day for a total of 3 injections. For CD8^+ T cell depletion, 2×100 μg and 1×250 μg of anti-CD8a or isotype control (BioXcell) was injected intravenously every other day.

[3] = molecular target: T1, Akt:β-catenin interaction (EGFP-AKT and mCherry-β-catenin) (Mus musculus, UniProt Q02248); experiment: FRET assay (acceptor photobleaching), 293T cells; type: cell-based
T1 construct: host or cells: 293T cells
T1 sequence (Q02248 1-781): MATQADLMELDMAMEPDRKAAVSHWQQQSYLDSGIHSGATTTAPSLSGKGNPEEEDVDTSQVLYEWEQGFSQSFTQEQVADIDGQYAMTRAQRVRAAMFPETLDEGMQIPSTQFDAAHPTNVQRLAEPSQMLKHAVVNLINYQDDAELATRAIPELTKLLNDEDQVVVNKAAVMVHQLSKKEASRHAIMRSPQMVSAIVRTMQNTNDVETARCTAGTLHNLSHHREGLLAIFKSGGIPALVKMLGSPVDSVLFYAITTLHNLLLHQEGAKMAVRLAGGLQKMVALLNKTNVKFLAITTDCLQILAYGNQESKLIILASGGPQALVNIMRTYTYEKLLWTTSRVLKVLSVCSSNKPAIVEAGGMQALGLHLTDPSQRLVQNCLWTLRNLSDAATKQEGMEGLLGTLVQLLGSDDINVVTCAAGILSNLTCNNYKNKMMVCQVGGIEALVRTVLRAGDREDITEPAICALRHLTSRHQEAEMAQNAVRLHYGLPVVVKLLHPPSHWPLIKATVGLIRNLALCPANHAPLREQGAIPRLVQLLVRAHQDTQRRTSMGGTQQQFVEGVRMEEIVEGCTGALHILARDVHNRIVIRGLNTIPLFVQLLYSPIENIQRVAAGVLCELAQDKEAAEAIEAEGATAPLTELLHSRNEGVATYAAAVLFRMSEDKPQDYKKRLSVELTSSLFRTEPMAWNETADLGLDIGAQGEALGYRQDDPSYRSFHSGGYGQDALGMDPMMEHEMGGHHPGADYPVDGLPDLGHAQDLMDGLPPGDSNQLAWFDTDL
Procedure: Cells transfected with EGFP-AKT and mCherry-β-catenin were treated with vehicle or Doxorubicin at the indicated concentrations and FRET efficiency was determined.
FIG. 7C provides the FRET verification between Akt and β-catenin.
FRET measurement was performed by using the acceptor photobleaching method. Briefly, 293T cells were transfected with EGFP-AKT and mCherry-β-catenin (Addgene, #39531, #55001). A Perkin-Elmer Ultraview spinning disc system with a CSU-X1 Yokogawa disc was used for imaging. A 40×1.2 NA Plan-apochromatic objective was used, and emission was collected onto a C9100 Hamamatsu Photonics EM-CCD. EGFP was excited with a 488 nm laser, and emission was collected through a 500-555 nm band pass filter. mCherry was illuminated, and photobleached, with a 561 nm laser. Emission of mCherry was collected with a 580-650 nm band pass filter. 6 images of EGFP were acquired before and 8 images after bleaching of the mCherry with intense 561 nm light. After subtraction of camera background, the average intensity of EGFP in a region of interest spanning the bleached cell was determined in the 4 images before acceptor bleach (I1), or the 4 images after acceptor bleach (12). FRET efficiency is reported as 1−(I1/I2). Calculations were based on >500 cell images.

[4] = BM FACS 5 days post-treatment, DXR as [Low]DXR 5×0.5 mg/kg, chemotherapy = Nelarabine+Dexamethasone 5 days
[5] = clinical dose DXR 20 mg/kg alone

COc1cccc2c1C(=O)c1c(O)c3c(c(O)c1C2=O)C[C@@](O)(C(=O)CO)C[C@@H]3O[C@H]1C[C@H](N)[C@H](O)[C@H](C)O1 [DXR, doxorubicin]
effect on LSCs [1, 4]: significantly reduced
effect on blast cells [1, 4]: no significant effect
blast cell reduction when DXR substitutes for Nelarabine ([1]; [Low]DXR with Dexamethasone, 10 days post-treatment): did not significantly reduce blast cells
HSPC frequency versus vehicle alone [1, 5]: not significantly different
increase of LSC frequency among surviving cells [1, 5]: 5 fold
increase of blast cell frequency among surviving cells [1, 5]: < 2 fold
toxicity in terms of absolute cell number [1, 5]: broadly toxic to all cells
blast cell reduction when DXR substitutes for Nelarabine ([1]; clinical equivalent dose DXR (5×4 mg/kg daily) with Dexamethasone, 10 days post-treatment): could substitute for a DNA-damaging agent in their reduction
reduction of LSCs ([1]; free DXR, 5 doses of 0.15 μg/g, 10 days post-treatment): ineffective
effect on LSCs after CD8+ T cell depletion [2]: no longer significantly reduced LSCs
concentration at which Akt:β-catenin interaction is inhibited [3]: < 1 µM
FRET between EGFP-AKT and mCherry-β-catenin ([3]; versus vehicle treated cells): decreased with increasing concentrations and exposure time
